Measurements reported in US4786755A, “Diphenic acid monoamides” (Warner-Lambert Company, priority 1986, dated 1988).
pIC50: −log10 of the molar value.

Molecular target: T1, 5-lipoxygenase (Homo sapiens, UniProt P09917)
T1 construct: endogenous in cells; host or cells: leukocytes isolated from fresh human blood
T1 sequence (P09917 1-674): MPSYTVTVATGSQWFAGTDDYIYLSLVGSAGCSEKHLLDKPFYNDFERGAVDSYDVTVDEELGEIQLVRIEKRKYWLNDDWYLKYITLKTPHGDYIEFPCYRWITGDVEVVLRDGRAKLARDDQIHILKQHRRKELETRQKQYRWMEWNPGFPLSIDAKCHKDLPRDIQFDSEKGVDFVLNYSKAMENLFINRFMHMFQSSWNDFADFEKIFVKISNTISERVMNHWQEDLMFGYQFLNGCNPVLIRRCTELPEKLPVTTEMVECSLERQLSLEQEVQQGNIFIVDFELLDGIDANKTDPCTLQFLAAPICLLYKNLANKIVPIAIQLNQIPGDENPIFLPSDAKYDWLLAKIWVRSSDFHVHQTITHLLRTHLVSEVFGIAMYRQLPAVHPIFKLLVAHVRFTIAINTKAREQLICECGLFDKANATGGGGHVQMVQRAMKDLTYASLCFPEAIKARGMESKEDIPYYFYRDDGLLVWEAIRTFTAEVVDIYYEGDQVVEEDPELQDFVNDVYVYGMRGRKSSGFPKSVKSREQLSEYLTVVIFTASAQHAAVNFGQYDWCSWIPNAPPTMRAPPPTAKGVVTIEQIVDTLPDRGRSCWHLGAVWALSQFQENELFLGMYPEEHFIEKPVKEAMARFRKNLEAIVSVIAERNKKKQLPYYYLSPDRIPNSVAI
Assay: 5-Lipoxygenase Assay Using Isolated Human Leukocytes (5LOA2)
Assay type: cell-based
Settings: 20 μM exogenous arachidonic acid; read-out: IC50 5LOA (20)*
Protocol: 5-Lipoxygenase Assay Using Isolated Human Leukocytes (5LOA2)
The formation of 5-HETE in human leukocytes is considered a measure of 5-lipoxygenase activity. The protocol is described in the following.
Fresh heparinized or EDTA treated human blood is mixed with 6% dextran-3% dextrose in isotonic saline in the ratio 0.25 ml dextran solution per 1.0 ml blood. After mixing the blood is allowed to sit at room temperature for about 90 minutes while the RBC's settle. During this period, the plasma is removed with a plastic pipette to nalgens tubes.
The plasma is centrifuged at 800 rpm ([…]) on the Beckman Td-b refrigerated centrifuge to remove the platelets (which remain in the supernatant). The pellet, consisting of leukocytes and erythrocytes, is treated with 10 ml 0.87% ammonium chloride at room temperature for four minutes, lysing the red cells. At the end of four minutes the cells are diluted with a 2× volume of phosphate buffered saline, pH 7.4, and centrifuged for ten minutes. The cells are washed three times with the phosphate buffered saline. Any of the pelleted cell matter which is not easily resuspended is discarded during the washings--the material contains platelets (12-lipoxygenase activity).
After washing, the cells are resuspended in phosphate buffered saline containing 1.0 mM calcium and 0.5 mM magnesium. After counting the cells are diluted to 1.5-2.0×10^7 leukocytes per milliliter.
To each polypropylene reaction tube is added 0.48 ml leukocytes in Ca-Mg phosphate buffered saline, pH 7.4; 1-5 μl test compound dissolved in DMSO and buffer; or DMSO for control tubes.
The tubes preincubate at 37° C. for five minutes.
The reaction is started by adding 20 μl of the following, 0.5 μl 20 mM arachidonic acid--final concentration=20 μm; 1 μl 5 mM calcium ionophore A23187--final concentration=10 μm; and 18.5 μl buffer.
The reaction proceeds for five minutes, then is stopped by adding 0.5 ml 0.5 mM ice cold Tris buffer, pH 8.0. The tubes are chilled on ice for ten minutes and then extracted three times with a total of 3.5 ml ethyl acetate (3.0 ml removed).
The tubes can be stored at this point. For extended storage, the tubes should be filled with nitrogen.
The ethyl acetate is evaporated with a Sorvall Speed-Vac. The residue is dissolved in ethanol. The tubes can also be stored at this point at -20° C. under nitrogen.
A portion of the ethanol solution is injected into the HPLC system for 5-HETE quantitation.
The HPLC system consists of Hewlett-Packard 1040A UV spectrophotometry system with an HP85 computer. Injections are made automatically with a Waters WISP 710B. The pump is a Spectra Physics SP8700. Peaks are measured with a Hewlett Packard 3390A integrator. An RP C-18 column is used. The solvent system is isocratic; the solvent is 70% methanol and 30% 0.01M sodium acetate, pH 5.7, pumped at 1.0 ml/min. The flow is monitored at 235 nm for 5-HETE quantitation. Using a 15 cm Alltech Nucleosil C-18 5 μM column provides for a sample turnaround time of about 16 minutes.
IC50 is calculated as the amount of test agent that causes 50% inhibition of the formation of 5-HETE relative to the control.

Row | SMILES | pIC50
1 | COc1ccc(CCc2ccc(NC(=O)c3ccccc3-c3ccccc3C(=O)O)cc2)cc1OC [Example 7, [1,1'-Biphenyl]-2-carboxylic acid, 2'-[[[4-[2-(3,4-dimethoxyphenyl)ethyl]phenyl]amino]carbonyl]-] | < 4.70
2 | O=C(O)c1ccccc1-c1ccccc1C(=O)Nc1ccc(CCCc2ccc(Cl)c(Cl)c2)cc1 [Example 1, [1,1'-Biphenyl]-2-carboxylic acid, 2'-[[[4-[3-(3,4-dichlorophenyl)propyl]phenyl]amino]carbonyl]-] | 5.17
3 | O=C(O)c1ccccc1-c1ccccc1C(=O)Nc1ccc(Cc2ccc(Cl)c(Cl)c2)cc1 [Example 9] | 4.72
4 | O=C(O)c1ccccc1-c1ccccc1C(=O)Nc1ccc(CCCCc2ccc(Cl)c(Cl)c2)cc1 [Example 15, [1,1'-Biphenyl]-2-carboxylic acid, 2'-[[[4-[4-(3,4-dichlorophenyl)butyl]phenyl]amino]carbonyl]-] | 5.34

Other lines, results leading:

Row | pIC50 | SMILES
5 | 4.66 | O=C(O)c1ccccc1-c1ccccc1C(=O)Nc1ccc(CCCc2ccccc2)cc1 [Example 16, [1,1'-Biphenyl]-2-carboxylic acid, 2'-[[[4-(3-phenylpropyl]phenyl]amino]carbonyl]-]
6 | 5.14 | O=C(O)c1ccccc1-c1ccccc1C(=O)Nc1ccc(CCCCc2ccccc2)cc1 [Example 19, [1,1'-Biphenyl]-2-carboxylic acid, 2'-[[[4-(4-phenylbutyl)phenyl]amino]carbonyl]-]
